For two molecules, Activity and inhibition results are on record in ChEMBL document CHEMBL4118021, “Studies of TAK1-centered polypharmacology with novel covalent TAK1 inhibitors” (Bioorg Med Chem, 2017).

The source made the active and inactive calls. The rule behind the calls is not given here.

What all share (assay type): cell-based
Assay [1] deals with Small ribosomal subunit protein uS7m (Homo sapiens) (UniProt Q9Y2R9). Kind of assay: Binding affinity to MRPS7 in human NCI-H358 cells at 1 uM by mass spectrometry based pull down assay.
Assay [2] has as its target Carbonyl reductase [NADPH] 1 (Homo sapiens) (UniProt P16152). Kind of assay: Binding affinity to CBR1 in human NCI-H358 cells at 1 uM by mass spectrometry based pull down assay.
Assay [3] has as its target T1, 80S Ribosome (Homo sapiens) (UniProt P08865+P42677+P62753+P15880+P23396+P61247+P62701+P22090+P46782+P62081+P62241+P46781+P46783+P62280+P25398+P62277+P62263+P62841+P62244+P62249+P08708+P62269+P39019+P60866+P63220+P62266+P62847+P62851+P62854+P62979+P62857+P62273+P62861+P39023+P36578+P46777+Q02878+P18124+P62424+P62917+P32969+P27635+P62906+P62913+P30050+P26373+P40429+P50914+P61313+P18621+Q07020+Q02543+P84098+P46778+P35268+P62829+P62750+P83731+P61254+P61353+P46776+P46779+P47914+P62888+P62899+P62910+P49207+P42766+P18077+Q9Y3U8+P83881+P61927+P61513+P63173+P62891+P62945+P05388+P05386). Kind of assay: Binding affinity to RPL19 in human NCI-H358 cells at 1 uM by mass spectrometry based pull down assay.

In assay [4] the target is Proto-oncogene tyrosine-protein kinase Src (Homo sapiens) (UniProt P12931). Kind of assay: Binding affinity to SRC in human NCI-H23 cells at 1 uM by mass spectrometry based pull down assay.
Proto-oncogene tyrosine-protein kinase Src (Homo sapiens), sequence (P12931 2-536 limits assumed): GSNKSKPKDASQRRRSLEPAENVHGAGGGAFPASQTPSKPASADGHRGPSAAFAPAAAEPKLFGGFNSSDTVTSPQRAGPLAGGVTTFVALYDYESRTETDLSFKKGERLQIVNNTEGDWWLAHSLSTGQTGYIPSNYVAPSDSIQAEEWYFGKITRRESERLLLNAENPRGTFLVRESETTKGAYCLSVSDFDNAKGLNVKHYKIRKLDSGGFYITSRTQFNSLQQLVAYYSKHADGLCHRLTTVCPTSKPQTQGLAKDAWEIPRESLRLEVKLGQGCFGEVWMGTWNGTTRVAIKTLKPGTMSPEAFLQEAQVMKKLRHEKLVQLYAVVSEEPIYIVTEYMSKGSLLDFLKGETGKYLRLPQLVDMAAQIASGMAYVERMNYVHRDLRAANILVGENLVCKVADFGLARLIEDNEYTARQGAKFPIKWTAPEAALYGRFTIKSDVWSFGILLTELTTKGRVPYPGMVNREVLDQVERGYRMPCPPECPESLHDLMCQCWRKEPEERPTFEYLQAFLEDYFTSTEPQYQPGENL
For assay [5], the target named is T1, 80S Ribosome (Homo sapiens). Kind of assay: Binding affinity to RPS11 in human NCI-H358 cells at 1 uM by mass spectrometry based pull down assay.
The target in assay [6] is Membrane-associated progesterone receptor component 1 (Homo sapiens) (UniProt O00264). Kind of assay: Binding affinity to PGRMC1 in human NCI-H23 cells at 1 uM by mass spectrometry based pull down assay.
Membrane-associated progesterone receptor component 1 (Homo sapiens), sequence (O00264 whole entry): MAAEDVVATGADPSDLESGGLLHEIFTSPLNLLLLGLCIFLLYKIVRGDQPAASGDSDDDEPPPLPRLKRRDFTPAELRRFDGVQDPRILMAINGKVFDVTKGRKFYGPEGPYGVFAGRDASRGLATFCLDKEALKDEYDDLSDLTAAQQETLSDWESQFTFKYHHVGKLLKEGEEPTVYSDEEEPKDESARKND
Assay [7] addresses Protein diaphanous homolog 1 (Homo sapiens) (UniProt O60610). Kind of assay: Binding affinity to DIAPH1 in human NCI-H358 cells at 1 uM by mass spectrometry based pull down assay.
For assay [8], the target named is Eukaryotic translation initiation factor 5B (Homo sapiens) (UniProt O60841). Kind of assay: Binding affinity to EIF5B in human NCI-H23 cells at 1 uM by mass spectrometry based pull down assay.
Eukaryotic translation initiation factor 5B (Homo sapiens), sequence (O60841 whole entry): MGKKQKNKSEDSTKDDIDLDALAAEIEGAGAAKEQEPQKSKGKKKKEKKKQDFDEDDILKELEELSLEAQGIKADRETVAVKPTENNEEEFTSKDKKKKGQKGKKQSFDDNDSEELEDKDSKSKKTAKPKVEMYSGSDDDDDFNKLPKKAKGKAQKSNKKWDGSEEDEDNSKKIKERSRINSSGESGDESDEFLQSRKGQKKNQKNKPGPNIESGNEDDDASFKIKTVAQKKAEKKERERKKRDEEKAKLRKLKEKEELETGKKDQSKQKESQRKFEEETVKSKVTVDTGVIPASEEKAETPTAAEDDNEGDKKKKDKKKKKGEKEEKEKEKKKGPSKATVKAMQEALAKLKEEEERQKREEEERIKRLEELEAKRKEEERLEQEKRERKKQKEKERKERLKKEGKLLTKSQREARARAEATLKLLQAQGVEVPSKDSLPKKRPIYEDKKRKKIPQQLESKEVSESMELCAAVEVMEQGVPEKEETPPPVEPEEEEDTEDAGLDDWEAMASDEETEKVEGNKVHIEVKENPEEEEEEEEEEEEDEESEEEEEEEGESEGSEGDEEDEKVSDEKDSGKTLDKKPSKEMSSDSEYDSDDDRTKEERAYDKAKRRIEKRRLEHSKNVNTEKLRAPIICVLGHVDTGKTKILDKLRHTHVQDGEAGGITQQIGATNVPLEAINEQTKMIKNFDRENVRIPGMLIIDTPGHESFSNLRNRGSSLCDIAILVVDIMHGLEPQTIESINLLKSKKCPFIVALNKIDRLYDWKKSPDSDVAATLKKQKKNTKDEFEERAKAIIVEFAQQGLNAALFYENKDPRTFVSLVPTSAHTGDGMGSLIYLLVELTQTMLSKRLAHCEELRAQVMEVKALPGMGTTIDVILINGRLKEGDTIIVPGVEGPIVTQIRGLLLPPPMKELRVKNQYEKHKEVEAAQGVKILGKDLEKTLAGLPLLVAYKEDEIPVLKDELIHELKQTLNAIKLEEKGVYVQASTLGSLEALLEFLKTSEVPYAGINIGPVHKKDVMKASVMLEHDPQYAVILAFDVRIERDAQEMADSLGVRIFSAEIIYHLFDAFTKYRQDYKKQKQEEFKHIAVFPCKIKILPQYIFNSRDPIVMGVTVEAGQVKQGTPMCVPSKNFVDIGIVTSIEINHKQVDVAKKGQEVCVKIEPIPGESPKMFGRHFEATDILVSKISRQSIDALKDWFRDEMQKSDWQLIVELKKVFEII
The target of assay [9] is T1, 80S Ribosome (Homo sapiens). Briefly: Binding affinity to RPL27 in human NCI-H23 cells at 1 uM by mass spectrometry based pull down assay.
The target of assay [10] is T2, Mitogen-activated protein kinase kinase kinase 7 (Homo sapiens) (UniProt O43318).
T2 sequence (whole entry): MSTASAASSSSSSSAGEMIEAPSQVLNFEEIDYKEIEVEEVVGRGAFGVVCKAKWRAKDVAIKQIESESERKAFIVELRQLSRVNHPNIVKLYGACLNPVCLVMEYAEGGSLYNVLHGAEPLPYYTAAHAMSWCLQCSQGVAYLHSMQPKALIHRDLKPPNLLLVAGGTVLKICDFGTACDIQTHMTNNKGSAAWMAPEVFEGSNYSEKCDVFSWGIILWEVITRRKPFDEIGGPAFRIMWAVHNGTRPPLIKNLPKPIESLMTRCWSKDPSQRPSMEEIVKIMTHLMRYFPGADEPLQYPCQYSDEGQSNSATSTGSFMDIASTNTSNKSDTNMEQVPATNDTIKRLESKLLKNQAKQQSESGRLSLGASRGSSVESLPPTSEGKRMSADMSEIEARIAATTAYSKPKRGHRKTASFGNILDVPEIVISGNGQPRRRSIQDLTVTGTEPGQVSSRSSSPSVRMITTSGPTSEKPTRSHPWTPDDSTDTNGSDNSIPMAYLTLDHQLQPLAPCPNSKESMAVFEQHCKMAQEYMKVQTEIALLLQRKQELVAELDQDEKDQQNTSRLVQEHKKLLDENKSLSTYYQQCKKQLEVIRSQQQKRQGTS
Briefly: Binding affinity to MAP3K7 in human NCI-H358 cells at 1 uM by mass spectrometry based pull down assay.

For assay [11], the target named is T1, 80S Ribosome (Homo sapiens). Kind of assay: Binding affinity to RPL23A in human NCI-H23 cells at 1 uM by mass spectrometry based pull down assay.
The target in assay [12] is Cytosolic iron-sulfur assembly component 2A (Homo sapiens) (UniProt Q9H5X1). Briefly: Binding affinity to FAM96A in human NCI-H23 cells at 1 uM by mass spectrometry based pull down assay.
Cytosolic iron-sulfur assembly component 2A (Homo sapiens), sequence (Q9H5X1 whole entry): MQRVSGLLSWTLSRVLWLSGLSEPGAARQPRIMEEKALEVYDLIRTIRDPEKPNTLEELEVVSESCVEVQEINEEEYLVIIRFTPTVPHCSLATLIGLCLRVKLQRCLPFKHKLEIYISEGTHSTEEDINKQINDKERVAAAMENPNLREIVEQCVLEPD
Assay [13] addresses Serine/threonine-protein kinase MARK2 (Homo sapiens) (UniProt Q7KZI7). Kind of assay: Inhibition of MARK2 in human SKCO1 cells at 1 uM after 4 hrs using biotin labeled EVAVKIIDK probe by mass-spectrometric analysis relative to control.
Assay [14] addresses Serine/threonine-protein kinase 38 (Homo sapiens) (UniProt Q15208). Kind of assay: Inhibition of NDR1 in human SKCO1 cells at 1 uM after 4 hrs using biotin labeled DIKPDNLLLDSK probe by mass-spectrometric analysis relative to control.

Serine/threonine-protein kinase MARK2 (Homo sapiens), sequence (Q7KZI7 whole entry): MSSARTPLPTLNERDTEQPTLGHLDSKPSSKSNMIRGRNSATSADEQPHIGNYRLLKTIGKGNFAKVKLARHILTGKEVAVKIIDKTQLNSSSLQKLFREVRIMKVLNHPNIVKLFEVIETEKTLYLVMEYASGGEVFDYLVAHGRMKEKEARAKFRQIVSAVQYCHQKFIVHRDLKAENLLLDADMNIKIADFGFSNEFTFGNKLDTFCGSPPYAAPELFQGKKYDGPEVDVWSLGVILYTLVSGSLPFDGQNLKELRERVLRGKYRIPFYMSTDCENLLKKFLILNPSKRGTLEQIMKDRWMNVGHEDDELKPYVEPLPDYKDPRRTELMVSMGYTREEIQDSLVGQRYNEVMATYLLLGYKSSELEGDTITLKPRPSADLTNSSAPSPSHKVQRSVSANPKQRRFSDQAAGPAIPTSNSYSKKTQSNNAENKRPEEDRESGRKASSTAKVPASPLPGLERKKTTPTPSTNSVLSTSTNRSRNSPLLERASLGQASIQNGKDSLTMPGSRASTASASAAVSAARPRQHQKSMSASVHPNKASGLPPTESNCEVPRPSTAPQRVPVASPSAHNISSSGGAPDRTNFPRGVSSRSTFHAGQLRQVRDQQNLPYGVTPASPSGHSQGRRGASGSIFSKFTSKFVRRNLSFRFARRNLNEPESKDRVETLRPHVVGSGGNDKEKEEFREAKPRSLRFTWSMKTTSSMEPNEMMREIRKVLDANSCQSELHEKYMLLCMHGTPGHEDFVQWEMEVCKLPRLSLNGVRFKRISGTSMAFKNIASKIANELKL
Protein diaphanous homolog 1 (Homo sapiens), sequence (O60610 whole entry): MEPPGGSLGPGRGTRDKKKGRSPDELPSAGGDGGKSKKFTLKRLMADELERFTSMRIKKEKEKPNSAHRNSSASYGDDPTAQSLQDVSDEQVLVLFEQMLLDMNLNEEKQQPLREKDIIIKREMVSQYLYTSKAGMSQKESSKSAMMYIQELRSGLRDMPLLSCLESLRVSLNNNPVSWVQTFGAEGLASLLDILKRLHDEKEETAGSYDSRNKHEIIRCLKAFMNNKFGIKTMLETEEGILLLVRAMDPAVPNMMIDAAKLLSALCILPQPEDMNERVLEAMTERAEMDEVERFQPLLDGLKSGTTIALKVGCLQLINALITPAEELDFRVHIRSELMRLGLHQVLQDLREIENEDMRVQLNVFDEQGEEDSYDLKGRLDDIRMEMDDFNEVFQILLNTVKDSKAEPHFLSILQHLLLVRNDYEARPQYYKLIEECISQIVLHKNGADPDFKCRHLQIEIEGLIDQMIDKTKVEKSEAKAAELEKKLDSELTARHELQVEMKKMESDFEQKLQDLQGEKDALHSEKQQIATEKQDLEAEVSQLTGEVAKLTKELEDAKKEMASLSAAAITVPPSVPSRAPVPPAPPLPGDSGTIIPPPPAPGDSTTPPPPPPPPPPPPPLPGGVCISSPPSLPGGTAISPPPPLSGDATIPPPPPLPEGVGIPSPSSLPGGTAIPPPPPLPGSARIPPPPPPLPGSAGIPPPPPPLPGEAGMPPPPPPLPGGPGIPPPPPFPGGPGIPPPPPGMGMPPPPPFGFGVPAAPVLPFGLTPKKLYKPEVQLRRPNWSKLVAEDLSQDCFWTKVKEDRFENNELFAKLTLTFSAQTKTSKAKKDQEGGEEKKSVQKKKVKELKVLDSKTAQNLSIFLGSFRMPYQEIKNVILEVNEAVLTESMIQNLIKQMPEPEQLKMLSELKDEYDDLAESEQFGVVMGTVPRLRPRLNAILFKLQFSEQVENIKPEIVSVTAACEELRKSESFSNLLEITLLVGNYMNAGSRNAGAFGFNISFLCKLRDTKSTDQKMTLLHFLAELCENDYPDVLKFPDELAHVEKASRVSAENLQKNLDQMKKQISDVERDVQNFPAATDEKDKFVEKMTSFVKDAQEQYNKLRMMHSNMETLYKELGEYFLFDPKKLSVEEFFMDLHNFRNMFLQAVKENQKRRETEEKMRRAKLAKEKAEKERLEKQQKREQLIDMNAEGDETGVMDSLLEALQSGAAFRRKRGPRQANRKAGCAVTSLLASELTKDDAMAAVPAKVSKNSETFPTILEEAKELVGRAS
Serine/threonine-protein kinase 38 (Homo sapiens), sequence (Q15208 2-465 limits assumed): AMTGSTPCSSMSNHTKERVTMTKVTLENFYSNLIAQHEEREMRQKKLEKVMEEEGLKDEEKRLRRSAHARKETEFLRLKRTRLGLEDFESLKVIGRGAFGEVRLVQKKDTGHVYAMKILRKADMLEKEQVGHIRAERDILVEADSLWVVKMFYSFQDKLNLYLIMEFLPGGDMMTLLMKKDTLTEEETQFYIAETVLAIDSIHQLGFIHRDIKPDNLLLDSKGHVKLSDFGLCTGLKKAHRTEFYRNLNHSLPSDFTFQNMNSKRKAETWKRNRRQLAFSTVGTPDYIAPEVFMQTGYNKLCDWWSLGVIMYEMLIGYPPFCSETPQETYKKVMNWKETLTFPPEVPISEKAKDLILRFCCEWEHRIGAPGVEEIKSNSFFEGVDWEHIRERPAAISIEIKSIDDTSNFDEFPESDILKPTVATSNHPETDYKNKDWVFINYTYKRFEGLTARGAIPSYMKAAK
Carbonyl reductase [NADPH] 1 (Homo sapiens), sequence (P16152 whole entry): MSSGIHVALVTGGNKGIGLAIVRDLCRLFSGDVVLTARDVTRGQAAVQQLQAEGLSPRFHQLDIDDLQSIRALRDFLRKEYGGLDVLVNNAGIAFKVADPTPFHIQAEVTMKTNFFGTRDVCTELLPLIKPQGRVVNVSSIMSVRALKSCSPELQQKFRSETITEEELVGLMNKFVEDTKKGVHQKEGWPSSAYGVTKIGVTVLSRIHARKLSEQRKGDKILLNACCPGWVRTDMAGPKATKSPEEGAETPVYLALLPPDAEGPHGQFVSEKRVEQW

As to `C=CC(=O)Nc1ccccc1Nc1nc(Nc2ccc(N3CCN(CCOCCOCCOCCNC(=O)CCCC[C@@H]4SC[C@@H]5NC(=O)N[C@@H]54)CC3)cc2)ncc1Cl`, the outcome in assay [1], in assay [2], in [3], in [4], in assay [5] and in assay [6] was Active. Besides, the outcome in assay [7], in assay [8], in [9], in [10], in assay [11] and in assay [12] was Active.

In general, inhibition refers to the relative decrease from the control value, in per cent. `C=CC(=O)Nc1ccccc1Nc1nc(Nc2ccc(N3CCN(C)CC3)cc2)ncc1Cl`: the inhibition in assay [13] is -5.7%; in assay [14], -4.9%.
